US20190083498A1, “THERAPIES FOR HEMATOLOGIC MALIGNANCIES” (GILEAD CALISTOGA LLC, priority 2008, published 2019)

What was measured:
[1] = test system: patient chronic lymphocytic leukemia (CLL) cells; test: Apoptosis of patient CLL cells, Annexin V-FITC/PI flow cytometry; type: cell-based, human
Protocol: Peripheral blood was obtained from patients with B-CLL through the CLL Research Consortium from Ohio State University. Primary CD19-positive cells were isolated using Rosette-Sep (StemCell Technologies). Cells were maintained in RPMI 1640 (Invitrogen) supplemented with 10% heat-inactivated fetal bovine serum, 2 mmol/L L-glutamine, and penicillin (100 units/mL)/streptomycin (100 μg/mL; Invitrogen) at 37° C., 5% CO2, and high humidity. After incubation with the compound of formula I or medium for 96 hours, 5×10^5 cells were washed with PBS and then resuspended in binding buffer (10 mmol/L HEPES/NaOH, pH 7.4, 150 mmol/L NaCl 5 mmol/L KCl, 1 mmol/L MgCl2, 1.8 mmol/L CaCl2) containing 2 μL of Annexin V-FITC stock (BioWhittaker, Inc) and 10 μL of 20 μg/mL PI (Sigma). After incubation for 10 minutes at room temperature in a light-protected area, the specimens were quantified by flow cytometry on a FACScan™ (Becton Dickinson).

[2] = human, in vivo
Protocol: This example provides data relating to the concentration of the compound of formula I in the blood of a healthy human subject on day 7. The concentration was monitored over a period of 12 hours, after oral administration of 50, 100, or 200 mg BID of the compound of formula I on day 7 of the study. FIG. 11 follows the plasma concentration of the drug over a period of 12 hours from administration.
In addition, single dose studies wherein 17-400 mg of the compound of formula I was administered in healthy volunteers was carried out.
Table 1, below, provides an overview of the subjects in the study, wherein either a singe dose (SD) or multiple dose (MD) of the compound of formula I is administered to a subject at varying amounts. The “n” values refer to the number of subjects in each group.

[3] = test system: Phospho-Akt; test: Phospho-Akt production in patient AML cells; type: cell-based, human; conditions: 0.1, 1.0, 10 μM
Source text: PI3Kδ is implicated in signaling in AML patient cells.

[4] = test system: MM.1S cells; test: AKT and ERK phosphorylation, immunoblotting; type: cell-based, human; conditions: MM.1S cells with low expression of P110δ; 6 hours
Source text: Whole-cell lysates were subjected to sodium dodecyl sulfate-polyacrylamide gel electrophoresis (SDS-PAGE) separation, transferred to Pure Nitrocellulose membranes (Bio-Rad Laboratories, Hercules, Calif.), and immunoblotted with anti-AKT, phospho(p)-AKT (Ser473, Thr 308), ERK1/2 , P-ERK1/2, P-PDK1, STAT, P-STAT, P-FKRHL, P-70S6K, LC3, and PI3K/p110 α Abs (Cell Signaling Danvers, Mass.); anti-p110β, PI3K/p110δ, Glyceraldehyde 3-phosphate dehydrogenase (GAPDH), α-tubulin, and actin Abs (Santa Cruz Biotechnology, Calif.); and anti-p110 γ Ab (Alexis, San Diego, Calif.): and anti-LC3 Ab (Abgent, San Diego, Calif.).
Actin Ab was used as a loading control. […] Whole cell lysates were subjected to immunoblotting using AKT, P-AKT (Ser473 and Thr308), ERK1/2, P-ERK1/2, P-PDK1, and P-FKRHL antibodies. α-tubulin is used as a loading control.

[5] = test system: HuVECs; test: In vitro angiogenesis assay, endothelial cell tube formation; type: cell-based, human; conditions: 0, 1.0, or 10 μM; 8 h
Protocol: HUVEC and endothelial growth media were obtained from Lonza (Walkersville, Md., USA). […] After 8 h, tube formation was evaluated using Leika DM IL microscopy (Leica Microsystems, Wetzlar, Germany) and analyzed with IM50 software (Leica Microsystems Imaging Solutions, Cambridge, UK). HUVEC cell migration and rearrangement was visualized, and the number of branching points counted.
The effect of P110 δ inhibition on angiogenesis was investigated.

[6] = test system: phospho-AKT (ser473) in INA-6 cells; test: Bortezomib-induced AKT phosphorylation, western blotting; type: cell-based, human; conditions: compound I 5 μM, bortezomib 5 nM; 6 h
Protocol: Phosphorylation of AKT was determined by western blotting of cell lysates using phospho-AKT (ser473) antibody, FIG. 37B. Actin served as a loading control.

[7] = test system: FL cell lines; test: PI3K signaling and apoptosis in follicular lymphoma cell lines; type: cell-based
[8] = test system: CLL cells with or without StromaNKTert; test: CLL cell viability/apoptosis in stromal co-culture, Annexin V/PI FACS; type: cell-based, human; conditions: 24 hours
Protocol: CLL cell and stromal cell co-cultures: CLL cells were cultured under standardized conditions on stromal cell lines or primary NLC. Briefly, stromal cells were seeded one day prior to each experiment onto 24-well plates (Corning Life Sciences) at a concentration of 3×10^5 cells/mL/well and incubated at 37° C. in 5% CO2. Stromal cell confluence was confirmed by phase contrast microscopy, and CLL cells were then added onto the stromal cell layer at a concentration of 3×10^6 cells/mL. Cultures were then treated with compounds for the specified time periods. CLL cells were removed for analysis by gentle pipetting with media, and were then washed in PBS prior to analysis. A 24-hour co-culture time point was used unless otherwise indicated.
Cell viability testing and reagents: CLL cell viability was determined by analysis of Annexin V-FITC (BD Biosciences, San Diego, Calif.) and Propidium Iodine (PI) (Sigma) by FACS.
To determine whether PI3K inhibition increased the sensitivity of stroma-exposed CLL cells by increasing priming, PB-derived CLL cells cultured with or without StromaNKTert cells for 24 hours and were examined using Annexin-PI and BH3 profiling. […] Stromal co-culture of four CLL patient samples led to protection from apoptosis in untreated cells.

CC[C@H](Nc1ncnc2[nH]cnc12)c1nc2cccc(F)c2c(=O)n1-c1ccccc1 [Compound I, 5-fluoro-3-phenyl-2-[1-(9H-purin-6-ylamino)-propyl]-3H-quinazolin-4-one]
apoptosis of CLL cells from poor prognosis patients [1]: induced apoptosis was seen
apoptosis of CLL cells from refractory/relapsed patients [1]: induced apoptosis was also seen to be effective
apoptosis of CLL patient cells ([1]; 96 hours): results in apoptosis
tolerability in normal healthy volunteers [2]: well tolerated
time the concentration exceeds the PI3Kδ EC50 concentration in basophil ([2]; 7 day): at least 12 hours
phospho-Akt production in patient AML cells [3]: reduces phopsho-Akt production
phosphorylation of AKT or ERK [4]: did not affect
capillary-like tube formation [5]: inhibited capillary-like tube formation in a dose-dependent fashion
induction of phospho-Akt by bortezomib treatment [6]: inhibited
pAkt, Akt, pS6 and S6 in FL cell lines ([7]; certain cell lines): reduction in the production of pAkt, Akt, pS6 and S6
cleavage of PARP and Caspase-3 in FL cell lines ([7]; dose dependent, 24 hours, 0.1 μM and 0.5 μM): Cleavage of PARP and Caspase-3 is observed
CLL cell viability in stromal co-culture, single agent ([8]; 10 μM alone, two patients): profound stroma-mediated resistance
apoptosis versus control in the absence of stroma ([8]; four CLL patient samples): induce more apoptosis than the control
apoptosis versus control in the presence of stroma ([8]; four CLL patient samples): induce significantly more apoptosis than the control
